The record followed here is patent US9833497B2, “Human originated EGF domain proteins and use of the same” (CHENGDU SOURCEBIO LIMITED-LIABILITY COMPANY, priority 2013, dated 2017).

By MIC is commonly meant the smallest concentration in the dilution series that meets the test's criterion for growth inhibition. Read a low MIC as greater potency.

Format in all cases: cell-based
Test [1] has as its system Pseudomonas aeruginosa. The test is described as follows: MIC against Gram-negative bacteria: Pseudomonas aeruginosa. The conditions noted are these: 5×10^5 CFU/mL; for MIC against P. aeruginosa: 96-well plate, 37° C., 10 h. An outline of the steps:
(§1)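 First, colonies from LB agar were grown in LB at 37° C, 185 rpm, to McFarland turbidity 0.5, then centrifuged and resuspended in fresh LB. Next, wells received 5×10^5 CFU/mL bacteria plus two-fold serially diluted EGF domain protein (triplicate). Finally, plates were shaken at 37° C and the no-growth concentration taken as MIC.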

The subject of test [2] is Moraxella catarrhalis. The test is described as follows: MIC against Gram-negative bacteria: Moraxella catarrhalis. The settings on record: 5×10^5 CFU/mL; for MIC against M. catarrhalis: 96-well plate, 37° C., 10 h. A digest of the protocol:
as §1

The test system of test [3] is E. coli DH5α. Briefly: Antibacterial activity: MIC and growth curve against E. coli DH5α in 96-well plate. The settings on record: minimal inhibitory concentration against E. coli DH5α; 96-well plate, 5×10^5 CFU/mL, 37° C., judged after 8 h. An outline of the steps: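 Log-phase DH5α (OD600 about 0.5, 37° C, 185 rpm in LB) was pelleted, resuspended in fresh LB and seeded at 5×10^5 CFU/mL with recombinant protein at 50, 25 and 12.5 μg/mL (two-fold series), in triplicate. Plates were shaken at 175 rpm, 37° C, and OD600 was read every 30 min. MIC was the lowest concentration with no growth.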

Test [4] deals with Proteus vulgaris. The test is described as follows: MIC against Gram-negative bacteria: Proteus vulgaris. The conditions noted are these: 5×10^5 CFU/mL; for MIC against P. vulgaris: 96-well plate, 37° C., 10 h. A digest of the protocol: as §1
In test [5] the test system is Citrobacter diversus. The test is described as follows: MIC against Gram-negative bacteria: Citrobacter diversus. The conditions noted are these: 5×10^5 CFU/mL; for MIC against C. diversus: 96-well plate, 37° C., 10 h. A digest of the protocol: as §1
The subject of test [6] is Klebsiella pneumonia. Briefly: MIC against Gram-negative bacteria: Klebsiella pneumonia. The settings on record: 5×10^5 CFU/mL; for MIC against K. pneumonia: 96-well plate, 37° C., 10 h. An outline of the steps: as §1
In test [7] the test system is Aeromonas hydrophila. The test is described as follows: MIC against Gram-negative bacteria: Aeromonas hydrophila. The settings on record: 5×10^5 CFU/mL; for MIC against A. hydrophila: 96-well plate, 37° C., 10 h. An outline of the steps:
as §1

The subject of test [8] is Enterobacter cloacae. The test is described as follows: MIC against Gram-negative bacteria: Enterobacter cloacae. The settings on record: 5×10^5 CFU/mL; for MIC against E. cloacae: 96-well plate, 37° C., 10 h. A digest of the protocol: as §1
For test [9], the system named is E. coli BL21. Briefly: MIC against Gram-negative bacteria: E. coli BL21. The conditions noted are these: 5×10^5 CFU/mL; for MIC against E. coli BL21: 96-well plate, 37° C., 10 h. An outline of the steps:
as §1

Test [10] deals with Proteus mirabilis. The test is described as follows: MIC against Gram-negative bacteria: Proteus mirabilis. The conditions noted are these: 5×10^5 CFU/mL; for MIC against P. mirabilis: 96-well plate, 37° C., 10 h. An outline of the steps:
as §1

For test [11], the system named is Serratia marcescens. The test is described as follows: MIC against Gram-negative bacteria: Serratia marcescens. The settings on record: 5×10^5 CFU/mL; for MIC against S. marcescens: 96-well plate, 37° C., 10 h. An outline of the steps: as §1
[12] abbreviates: 10 h cultivation at 37° C., two-fold serial dilution.

Turning to “PRT1332 (FGPSCSSVCNCVHGVCNSGLDGDGTCECYSAYTGPKCD; listed as Homo sapiens)”, the “MIC against P. aeruginosa” value in [1] (Pseudomonas aeruginosa) was found to be 50 µg/mL. For the same substance, the “MIC against M. catarrhalis” value in [2] (Moraxella catarrhalis) was found to be 12.5 µg/mL. In [3], this substance showed a minimum inhibitory concentration (MIC) of 50 µg/mL. In addition, the “MIC against P. vulgaris” value in test [4] (Proteus vulgaris) was 12.5 µg/mL. Besides, the “MIC against C. diversus” value in [5] (Citrobacter diversus) was 25 µg/mL. The “MIC against K. pneumonia” value in test [6] (Klebsiella pneumonia) was determined as 25 µg/mL. Also, the “MIC against A. hydrophila” value in [7] (Aeromonas hydrophila) worked out at 50 µg/mL. In addition, the “MIC against E. cloacae” value in test [8] (Enterobacter cloacae) was determined as 12.5 µg/mL. Moreover, the “MIC against E. coli BL21” value in test [9] (E. coli BL21) is 12.5 µg/mL. Besides, the “MIC against P. mirabilis” value in test [10] (Proteus mirabilis) stood at 25 µg/mL. Moreover, in test [11] (Serratia marcescens), the “MIC against S. marcescens” value came to 25 µg/mL.

For the substance “PRT1337 (QTSACGPYVQFCHIHATCEYSNGTASCICKAGYEGDGTLCS; listed as Homo sapiens)”, the “MIC against P. aeruginosa” value in test [1] (Pseudomonas aeruginosa) was determined as 12.5 µg/mL. Moreover, the “MIC against M. catarrhalis” value in [2] (Moraxella catarrhalis) amounted to 12.5 µg/mL. Also, the MIC in [3] amounted to 12.5 µg/mL. Moreover, the “MIC against P. vulgaris” value in test [4] (Proteus vulgaris) was 50 µg/mL. In addition, the “MIC against C. diversus” value in test [5] (Citrobacter diversus) was determined as 25 µg/mL. Further, in test [6] (Klebsiella pneumonia), the “MIC against K. pneumonia” value stood at 25 µg/mL. Further, the “MIC against A. hydrophila” value in [7] (Aeromonas hydrophila) worked out at 25 µg/mL. The “MIC against E. cloacae” value in test [8] (Enterobacter cloacae) worked out at 50 µg/mL. Besides, in test [9] (E. coli BL21), the “MIC against E. coli BL21” value turned out to be 50 µg/mL. In addition, in test [10] (Proteus mirabilis), the “MIC against P. mirabilis” value worked out at 25 µg/mL. Also, the “MIC against S. marcescens” value in test [11] (Serratia marcescens) was 12.5 µg/mL.

As to “PRT573 (CPCPDGPDSGRQFARSCYQDPVTLQLACVCDPGYIGSRCDDCASGYFGNPSEVGGSCQP; listed as Homo sapiens)”, the “MIC against P. aeruginosa” value in [1] amounted to 25 µg/mL. Also, the “MIC against M. catarrhalis” value in [2] amounted to 50 µg/mL. The substance also returned an MIC in test [3] of 25 µg/mL. In addition, the “MIC against P. vulgaris” value in [4] came to 50 µg/mL. The “MIC against C. diversus” value in test [5] was found to be 12.5 µg/mL. Also, the “MIC against K. pneumonia” value in [6] is 12.5 µg/mL. Moreover, in [7], the “MIC against A. hydrophila” value stood at 12.5 µg/mL. In addition, the “MIC against E. cloacae” value in [8] came to 25 µg/mL. For the same substance, the “MIC against E. coli BL21” value in [9] came out at 12.5 µg/mL. Moreover, the “MIC against P. mirabilis” value in [10] turned out to be 12.5 µg/mL. Besides, the “MIC against S. marcescens” value in [11] was 12.5 µg/mL.

For the substance “PRT232 (DIDECRQDPSTCGPNSICTNALGSYSCGCIAGFHPNPEGSQKDGNFSCQ; listed as Homo sapiens)”, the “MIC (μg/mL) P. aeruginosa” value in [1] (P. aeruginosa, 10 h cultivation at 37° C.) was 25 µg/mL. The “MIC (μg/mL) M. catarrhalis” value in test [2] (M. catarrhalis, 10 h cultivation at 37° C.) was found to be 12.5 µg/mL. In test [3], this substance displayed an MIC of 25 µg/mL. In addition, the “MIC (μg/mL) P. vulgaris” value in test [4] (P. vulgaris, 10 h cultivation at 37° C.) came to 12.5 µg/mL. For the same substance, the “MIC (μg/mL) C. diversus” value in [5] (C. diversus, 10 h cultivation at 37° C.) worked out at 25 µg/mL. The “MIC (μg/mL) K. pneumonia” value in test [6] (K. pneumonia, 10 h cultivation at 37° C.) came out at 12.5 µg/mL. The “MIC (μg/mL) A. hydrophila” value in [7] (A. hydrophila, 10 h cultivation at 37° C.) was found to be 12.5 µg/mL. Further, the “MIC (μg/mL) E. cloacae” value in test [8] (E. cloacae, 10 h cultivation at 37° C.) stood at 25 µg/mL. Besides, the “MIC (μg/mL) E. coli BL21” value in test [9] (E. coli BL21, 10 h cultivation at 37° C.) was 12.5 µg/mL. The “MIC (μg/mL) P. mirabilis” value in test [10] (P. mirabilis, 10 h cultivation at 37° C.) stood at 25 µg/mL. Besides, the “MIC (μg/mL) S. marcescens” value in [11] (S. marcescens, 10 h cultivation at 37° C.) turned out to be 25 µg/mL.

“PRT1074 (QYRQCSGYCENFGTCQMAADGSRQCRCTAYFEGSRCE; listed as Homo sapiens)”: in [1] (setting [12]), the “MIC P. aeruginosa” value came to 50 µg/mL. Besides, the “MIC M. catarrhalis” value in test [2] (setting [12]) was 12.5 µg/mL. For the same substance, the MIC in test [3] came out at 50 µg/mL. For the same substance, the “MIC P. vulgaris” value in test [4] (setting [12]) amounted to 12.5 µg/mL. Further, in [5] (setting [12]), the “MIC C. diversus” value is 12.5 µg/mL. Moreover, the “MIC K. pneumonia” value in test [6] (setting [12]) is 12.5 µg/mL. In addition, the “MIC A. hydrophila” value in test [7] (setting [12]) came to 12.5 µg/mL. In addition, the “MIC E. cloacae” value in [8] (setting [12]) worked out at 12.5 µg/mL. The “MIC E. coli BL21” value in [9] (setting [12]) is 12.5 µg/mL. For the same substance, the “MIC P. mirabilis” value in test [10] (setting [12]) is 12.5 µg/mL. Moreover, the “MIC S. marcescens” value in test [11] (setting [12]) was 12.5 µg/mL.
